Test results: patent US12109253B2, “Use of IGFBP7 for treating malaria” (AGENCY FOR SCIENCE, TECHNOLOGY AND RESEARCH, priority 2019, dated 2024)
Several values for one entry are separate records, joined by “and”; a condition that tells them apart may be missing. Equal entries are not always repeated.

What was measured:
hCMEC/D3 = assay: IRBC-endothelial cytoadhesion to hCMEC/D3; type: cell-based, Plasmodium falciparum
Excerpt: Following this we investigated the relationship between IGFBP7, rosetting and IRBC-endothelial cytoadhesion. As expected, IGFBP7 stimulated rosetting of the recruited laboratory-adapted P. falciparum. […] How about the already endothelial-cytoadhered IRBCs? […] Clearly, presence of IGFBP7 interfered with the dynamics between IRBC-endothelial cytoadhesion and IRBC-rosetting.
Is the IGFBP7-induced reversal of IRBC-endothelial cytoadhesion mediated via the IGFBP7-stimulated rosetting? Or are the two events occurring concomitantly? […] The two events are likely to happen in parallel instead of being a cause-effect relationship.

peripheral monocytes = assay: IRBC phagocytosis by CD14+ peripheral monocytes; type: cell-based, human; conditions: IGFBP7 100 ng/ml, Pf line NHP1106, biological replicates
THP-1 = assay: IRBC phagocytosis by THP-1; type: cell-based, human
[1] = test system: Plasmodium berghei ANKA line expressing luciferase (PbAluc); assay: Experimental cerebral malaria (ECM) in PbAluc infected C57BL/6 mice; type: in vivo
Method: Here, we set out to determine the effect of IGFBP7 administration on mice. In particular, we set out to determine the dose and protection from ECM death of mouse IGFBP7 administered i.v. on days 5-12 post-infection (dpi) to Plasmodium berghei ANKA line expressing luciferase (PbAluc) infected C57BL/6 mice.
IGFBP7 was suspended in 1×PBS (concentrations: 0, 50, 100, 200, 1000, and 5000 ng/ml). A separate aliquot of IGFBP7 (5000 ng/ml) was prepared and boiled for one hour, to be used as control.
For each protein concentration group, I.V. administration of 100 μl per mouse was done.
Mice were infected with PbAluc. Prior to infection, an aliquot of serum was collected for each mouse using blood collected through orbital bleeding. Sera were also collected on days 3 and 6 post-infection (dpi) for further testing in future.
I.V. administration was done on daily basis from 5-12 dpi. The n number for each concentration group was 8 except group 5 ng/mouse (n=7) and group 500 ng/mouse (n=5).
The mice were monitored daily, and their signs and symptoms were observed. Dead mice were removed.
Survival of mice within the experimental cerebral malaria (ECM) period (6-12 dpi) across the experimental groups was recorded.
Mice that survived the ECM period were monitored until their death by malaria-induced anemia.

insulin-like growth factor binding protein 7 [IGFBP7]
cytoadhesion of already hCMEC/D3-cytoadhering IRBCs (hCMEC/D3; incubation of cytoadhering IRBCs with IGFBP7): reduced IRBC-endothelial cytoadhesion | IRBC-endothelial cytoadhesion of IGFBP7-primed packed cells (hCMEC/D3; rosette-stimulated cells then co-incubated with hCMEC/D3, vs non-IGFBP7-primed): lower rate of IRBC-endothelial cytoadhesion | phagocytosis rates (peripheral monocytes): 6.0% and 10.0% and 9.0% and 11.0% and 4.0% | phagocytosis rates (THP-1; THP-1, IGFBP7 100 ng/ml, Pf line NHP1106, biological replicates): 10.0% (2×) and 5.0% and 11.0% and 8.0% | IRBC phagocytosis compared with non-IGFBP7-exposed counterparts (THP-1; five different P. falciparum lines, IGFBP7-incubated prior to THP-1 exposure): significantly less phagocytosed | ECM death compared with control group ([1]; 10, 20, 100, and 500 ng/mouse i.v. daily 5-12 dpi, vs denatured IGFBP7): significantly lower ECM death | survival rate compared with control ([1]; 10, 20, 100 and 500 ng/mouse i.v. daily 5-12 dpi, vs denatured 500 ng/mouse IGFBP7, till 25 dpi): significant difference in survival rate | signs of cerebral malaria ([1]; groups 10, 20, 100 and 500 ng/mouse, after 8 dpi): reversal of CM signs | dose adequate to confer protection from cerebral malaria ([1]; i.v. daily 5-12 dpi): 10 ng/mouse
